According to patent US6825230B2, “Spiro and dispiro 1,2,4-trixolane antimalarials” (Medicines for Malaria Venture MMV, priority 2002, dated 2004):
Values after ≈ are worked out from the molar mass of the structure shown. Read-outs that look alike come from different tables or passages of the source.

Key:
[1] = system: chloroquine-resistant K1 strain of P. falciparum; test: In vitro antimalarial semiautomated microdilution assay ([3H]-hypoxanthine incorporation), K1 strain; format: cell-based, Plasmodium falciparum; conditions: Plasmodium falciparum
Summary of the method: (§1)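 Logit regression analysis yields the fifty percent inhibitory concentration. Compounds are tested by semiautomated microdilution on intraerythrocytic parasites drawn from asynchronous stock cultures, measuring [3H]-hypoxanthine incorporation.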

[2] = system: chloroquine-sensitive NF54 strain of P. falciparum; test: In vitro antimalarial semiautomated microdilution assay ([3H]-hypoxanthine incorporation), NF54 strain; format: cell-based, Plasmodium falciparum; conditions: Plasmodium falciparum
Summary of the method: as §1

[3] = system: ANKA strain of P. berghei; test: Single dose STI in vivo screen in infected mice; design: species or system Plasmodium berghei; conditions: for Survival (days) 10 mg/kg po: single 10 mg/kg po in 3% ethanol and 7% Tween 80; for Survival (days) 10 mg/kg po / Survival (days) 10 mg/kg SSV po / Survival (days) 10 mg/kg sc: untreated 6-7 days; for Activity (%) 10 mg/kg po: single 10 mg/kg po in 3% ethanol and 7% Tween 80 on day 1 post-infection; for Activity (%) 10 mg/kg po / Activity (%) 10 mg/kg SSV po / Activity (%) 10 mg/kg sc: percent reduction in parasitemia on day 3; for Survival (days) 10 mg/kg SSV po: single 10 mg/kg po in SSV; for Activity (%) 10 mg/kg SSV po: single 10 mg/kg po in standard suspending vehicle (SSV) on day 1 post-infection; for Survival (days) 10 mg/kg sc: single 10 mg/kg sc in 3% ethanol and 7% Tween 80; for Activity (%) 10 mg/kg sc: single 10 mg/kg sc in 3% ethanol and 7% Tween 80 on day 1 post-infection
[4] = K1, 72 h, read-out: IC50 (ng/ml) K1, chloroquine-resistant K1 strain, 72 h incubation
[5] = NF54, 72 h, read-out: IC50 (ng/ml) NF54, chloroquine-sensitive NF54 strain, 72 h incubation
[6] = chloroquine-resistant K1 strain, 72 h incubation, read-out: IC50 (ng/ml) K1
[7] = chloroquine-sensitive NF54 strain, 72 h incubation, read-out: IC50 (ng/ml) NF54

**Q.** S=C(Nc1ccccc1)N1CCC2(CC1)OOC1(O2)C2CC3CC(C2)CC1C3 (stereo not shown) [OZ144, Adamantane-2-spiro-3′-8′-(phenylaminothiocarbonyl)-1′,2′,4′-trioxa-8′-azaspiro[4.5]decane] was tested. Which IC50 [1, 4] did it give?
**A.** Its IC50 is 1.4 ng/mL (≈ 0.0035 µM).

**Q.** What about the IC50 [2, 5] of the same molecule?
**A.** The IC50 was 2.1 ng/mL (≈ 0.00524 µM).

**Q.** And the “Survival (days) 10 mg/kg po” value [3]?
**A.** The value was 7.3 days.

**Q.** What about the “Activity (%) 10 mg/kg po” value [3] of the same molecule?
**A.** Its value is 99.45%.

**Q.** What about the “Survival (days) 10 mg/kg SSV po” value [3] of the same molecule?
**A.** Its value is 7.3 days.

**Q.** And the “Activity (%) 10 mg/kg SSV po” value [3]?
**A.** The value was 92%.

**Q.** What about the “Survival (days) 10 mg/kg sc” value [3] of the same molecule?
**A.** The value was 16.7 days.

**Q.** What about the “Activity (%) 10 mg/kg sc” value [3] of the same molecule?
**A.** The value was 99.94%.

**Q.** For O=C1c2ccccc2C(=O)N1C[C@H]1CC[C@]2(CC1)OOC1(O2)C2CC3CC(C2)CC1C3 (stereo partly shown) [OZ146], which IC50 [1, 6] is on record?
**A.** Its IC50 is 2.2 ng/mL (≈ 0.00519 µM).

**Q.** And the IC50 [2, 7]?
**A.** Its IC50 is 2.7 ng/mL (≈ 0.00638 µM).

**Q.** And the “Survival (days) 10 mg/kg po” value [3]?
**A.** Its value is 7.0 days.

**Q.** What about the “Activity (%) 10 mg/kg po” value [3] of the same molecule?
**A.** Its value is 62%.

**Q.** What about the “Survival (days) 10 mg/kg SSV po” value [3] of the same molecule?
**A.** The value was 6.3 days.

**Q.** And the “Activity (%) 10 mg/kg SSV po” value [3]?
**A.** Its value is 40%.

**Q.** And the “Survival (days) 10 mg/kg sc” value [3]?
**A.** The value was 9.0 days.

**Q.** And the “Activity (%) 10 mg/kg sc” value [3]?
**A.** Its value is 91%.

**Q.** With O=C(OC1CCC2(CC1)OOC1(O2)C2CC3CC(C2)CC1C3)n1ccnc1 (stereo not shown) [OZ147, Adamantane-2-spiro-3′-1′,2′,4′-trioxaspiro[4.5]decane-8′-yl imidazole-1-carboxylate] as the molecule, how does the IC50 [1, 6] read?
**A.** The IC50 was 1.1 ng/mL (≈ 0.00294 µM).

**Q.** And the IC50 [2, 7]?
**A.** Its IC50 is 1.8 ng/mL (≈ 0.00481 µM).

**Q.** What about the “Survival (days) 10 mg/kg po” value [3] of the same molecule?
**A.** Its value is 8.0 days.

**Q.** And the “Activity (%) 10 mg/kg po” value [3]?
**A.** The value was 85%.

**Q.** And the “Survival (days) 10 mg/kg SSV po” value [3]?
**A.** Its value is 8.0 days.

**Q.** What about the “Activity (%) 10 mg/kg SSV po” value [3] of the same molecule?
**A.** The value was 71%.

**Q.** What about the “Survival (days) 10 mg/kg sc” value [3] of the same molecule?
**A.** The value was 19.7 days.

**Q.** What about the “Activity (%) 10 mg/kg sc” value [3] of the same molecule?
**A.** The value was 99.89%.

**Q.** Which results are given for O=C1OC2(CCC3(CC2)OOC2(O3)C3CC4CC(C3)CC2C4)c2ccccc21 (stereo not shown) [OZ149, Adamantane-2-spiro-3′-1′,2′,4′-trioxaspiro[4.5]decane-8′-spiro-1″-3″-oxo-3″H-isobenzofuran]?
**A.** IC50 [1, 6]: 8 ng/mL (≈ 0.0209 µM); IC50 [2, 7]: 8.8 ng/mL (≈ 0.023 µM); Survival (days) 10 mg/kg po [3]: 7.7 days; Activity (%) 10 mg/kg po [3]: 64%; Survival (days) 10 mg/kg SSV po [3]: 6.0 days; Activity (%) 10 mg/kg SSV po [3]: 3%; Survival (days) 10 mg/kg sc [3]: 14.3 days; Activity (%) 10 mg/kg sc [3]: 87%

**Q.** How did the IC50 [1, 4] turn out when O=C(NCCO)[C@H]1CC[C@]2(CC1)OOC1(O2)C2CC3CC(C2)CC1C3 (stereo partly shown) [OZ155] was run?
**A.** The IC50 was 12 ng/mL (≈ 0.0341 µM).

**Q.** And the IC50 [2, 5]?
**A.** Its IC50 is greater than 10 ng/mL.

**Q.** And the “Survival (days) 10 mg/kg po” value [3]?
**A.** Its value is 6.3 days.

**Q.** And the “Activity (%) 10 mg/kg po” value [3]?
**A.** The value was 53%.

**Q.** And the “Survival (days) 10 mg/kg SSV po” value [3]?
**A.** The value was 7.0 days.

**Q.** What about the “Activity (%) 10 mg/kg SSV po” value [3] of the same molecule?
**A.** Its value is 53%.

**Q.** What about the “Survival (days) 10 mg/kg sc” value [3] of the same molecule?
**A.** The value was 8.3 days.

**Q.** And the “Activity (%) 10 mg/kg sc” value [3]?
**A.** Its value is 73%.

**Q.** What does the source list for C(CNC1CCC2(CC1)OOC1(O2)C2CC3CC(C2)CC1C3)CN1CCOCC1 (stereo not shown) [OZ161]?
**A.** IC50 [1, 4]: 0.4 ng/mL (≈ 0.000984 µM); IC50 [2, 5]: 0.5 ng/mL (≈ 0.00123 µM); Survival (days) 10 mg/kg po [3]: 7.0 days; Activity (%) 10 mg/kg po [3]: 59%; Survival (days) 10 mg/kg SSV po [3]: 6.7 days; Activity (%) 10 mg/kg SSV po [3]: 46%; Survival (days) 10 mg/kg sc [3]: 12.7 days; Activity (%) 10 mg/kg sc [3]: 99.96%

**Q.** How did the IC50 [1, 4] turn out when CCOC(=O)c1ccc([C@H]2CC[C@]3(CC2)OOC2(O3)C3CC4CC(C3)CC2C4)cc1 (stereo partly shown) [OZ164] was run?
**A.** Its IC50 is 9 ng/mL (≈ 0.0218 µM).

**Q.** What about the IC50 [2, 5] of the same molecule?
**A.** The IC50 was greater than 10 ng/mL.

**Q.** What about the “Activity (%) 10 mg/kg po” value [3] of the same molecule?
**A.** The value was 11%.

**Q.** What about the “Survival (days) 10 mg/kg SSV po” value [3] of the same molecule?
**A.** The value was 5.7 days.

**Q.** And the “Activity (%) 10 mg/kg SSV po” value [3]?
**A.** The value was 0%.

**Q.** And the “Activity (%) 10 mg/kg sc” value [3]?
**A.** The value was 7%.

**Q.** Which results are given for O=C(O)c1ccc([C@H]2CC[C@]3(CC2)OOC2(O3)C3CC4CC(C3)CC2C4)cc1 (stereo partly shown) [OZ165]?
**A.** IC50 [1, 4]: 39 ng/mL (≈ 0.101 µM); IC50 [2, 5]: > 10 ng/mL; Survival (days) 10 mg/kg po [3]: 6.3 days; Activity (%) 10 mg/kg po [3]: 18%; Survival (days) 10 mg/kg SSV po [3]: 6.0 days; Activity (%) 10 mg/kg SSV po [3]: 3%; Survival (days) 10 mg/kg sc [3]: 5.7 days; Activity (%) 10 mg/kg sc [3]: 9%

**Q.** How did the IC50 [1, 4] turn out when CCOC(=O)c1ccc(OC[C@H]2CC[C@]3(CC2)OOC2(O3)C3CC4CC(C3)CC2C4)cc1 (stereo partly shown) [OZ166] was run?
**A.** The IC50 was 28 ng/mL (≈ 0.0633 µM).

**Q.** And the IC50 [2, 5]?
**A.** Its IC50 is greater than 10 ng/mL.

**Q.** What about the “Survival (days) 10 mg/kg po” value [3] of the same molecule?
**A.** Its value is 6.7 days.

**Q.** And the “Activity (%) 10 mg/kg po” value [3]?
**A.** Its value is 11%.

**Q.** And the “Survival (days) 10 mg/kg SSV po” value [3]?
**A.** The value was 6.3 days.

**Q.** And the “Activity (%) 10 mg/kg SSV po” value [3]?
**A.** The value was 0%.

**Q.** What about the “Survival (days) 10 mg/kg sc” value [3] of the same molecule?
**A.** The value was 5.7 days.

**Q.** What about the “Activity (%) 10 mg/kg sc” value [3] of the same molecule?
**A.** The value was 4%.
